From patent US20210238138A1, “Method for improving nucleation of crystals from solution” (Université Libre de Bruxelles, priority 2018, published 2021)

Assays:
[1] = Antisolvent (hexane) crystallisation of Brivaracetam/IPAc in capillary tubing; type: physicochemical; details: for Crystals Mean maximum length: inner diameter 500 μm, flows 20 and 20 mL · min^−1
Procedure: The length of the capillary tube has also been varied. In the following tests, antisolvent hexane at 4° C. was added to a solution of Brivaracetam/IPAc. It became clear that for these cases different lengths of tubing are to be investigated, as too long tube results into blockage of the tubes due to too high solid content in suspension in the solution, as reported in table 6. In all cases, the preferred rods form was observed.

[2] = Cooling crystallisation of Brivaracetam/IPAc in capillary tubing; type: physicochemical; details: 7 m tubing; for Appearance of crystals: 30 mL/min, 1 restriction, bath 20° C., initial 45° C.
Procedure: For example, following tests were made on Brivaracetam/IPAc (IsoPropylAcetate) at different concentrations. Induction time (appearance of crystals) is shown in table 1 for different increasing concentrations at a crystallization temperature of 20° C. after flowing through the tube at 30 mL/min in a 7 m long tubing.
(so same overall supersaturation). The variation in crystal size is shown without and with a 5 cm long 500 μm restriction. “Needles and rods” indicate appearance of concurring crystallizations of the two possible crystal types of Brivaracetam. Therefore the method also influences selectivity for one single crystal form. In the case of Brivaracetam, rods are preferred.
The advantage of using restriction(s) has already been indicated in previous tables. A series of tests was also performed using identical conditions and only changing the number of identical restrictions. In table 3, the tests were performed with restrictions of 1 mm in length and having an inner diameter of 500 μm. Crystal length decreases drastically when placing more restrictions in series in the tubing line.
Also different geometries of restriction were tested on Brivaracetam/IPAc mixtures: different lengths and different inner diameters.
The crystallization temperature is controlled by a water bath containing about 5 L of water, temperature is monitored at all times by a thermocouple. This water is cooled by a 1 m long cupper serpentine plunged into the bath with cooling liquid flowing from and to a cryothermostat, the water bath itself is agitated with a magnetic bar stirrer. The internal volume of a 7 m long tubing of […] is about 22 mL. As this volume is 220 times smaller than the volume of the present water it is assumed that the water temperature remains within a 0.5° C. or smaller margin of the set temperature value.

[3] = test 2: 600 mg/mL in IPAc, Tc 0° C., σ 11, Q 43 mL/min, no restriction
[4] = test 3: 600 mg/mL in IPAc, Tc 0° C., σ 11, Q 32 mL/min, no restriction
[5] = test 4: 600 mg/mL in IPAc, Tc 0° C., σ 11, Q 21 mL/min, no restriction
[6] = test 6: 600 mg/mL in IPAc, Tc 0° C., σ 11, Q 43 mL/min, restriction 5 cm long, 500 μm
[7] = test 7: 600 mg/mL in IPAc, Tc 0° C., σ 11, Q 32 mL/min, restriction 5 cm long, 500 μm
[8] = test 8: 600 mg/mL in IPAc, Tc 0° C., σ 11, Q 21 mL/min, restriction 5 cm long, 500 μm
[9] = test 9: 400 mg/mL in IPAc, Tc 10° C., σ 4.7, Q 30 mL/min, 0 restrictions
[10] = test 9 as listed in Table 4: 400 mg/mL in IPAc, Tc 10° C., σ 4.7, Q 30 mL/min, restriction none
[11] = test 10: 400 mg/mL in IPAc, Tc 10° C., σ 4.7, Q 30 mL/min, 1 restriction 1 mm long, 500 μm
[12] = test 11: 400 mg/mL in IPAc, Tc 10° C., σ 4.7, Q 30 mL/min, 1 restriction 1 mm long, 500 μm
[13] = test 12: 400 mg/mL in IPAc, Tc 10° C., σ 4.7, Q 30 mL/min, 2 restrictions 1 mm long, 500 μm
[14] = test 13: 400 mg/mL in IPAc, Tc 10° C., σ 4.7, Q 30 mL/min, 2 restrictions 1 mm long, 500 μm
[15] = test 14: 400 mg/mL in IPAc, Tc 10° C., σ 4.7, Q 30 mL/min, 3 restrictions 1 mm long, 500 μm
[16] = test 15: 400 mg/mL in IPAc, Tc 10° C., σ 4.7, Q 30 mL/min, 3 restrictions 1 mm long, 500 μm
[17] = test 16: 400 mg/mL in IPAc, Tc 10° C., σ 4.7, Q 30 mL/min, 4 restrictions 1 mm long, 500 μm
[18] = test 17: 400 mg/mL in IPAc, Tc 10° C., σ 4.7, Q 30 mL/min, one restriction length 5 cm, diameter 500 μm
[19] = test 18: 400 mg/mL in IPAc, Tc 10° C., σ 4.7, Q 30 mL/min, one restriction length 5 cm, diameter 750 μm
[20] = test 19: 400 mg/mL in IPAc, Tc 10° C., σ 4.7, Q 30 mL/min, one restriction length 20 cm, diameter 500 μm
[21] = test 20: 400 mg/mL in IPAc, Tc 10° C., σ 4.7, Q 30 mL/min, one restriction length 50 cm, diameter 500 μm
[22] = test 21: 400 mg/mL in IPAc, Tc 10° C., σ 4.7, Q 30 mL/min, one restriction length 100 cm, diameter 500 μm

CCC[C@@H]1CC(=O)N([C@@H](CC)C(N)=O)C1 [Brivaracetam]
Crystal form observed ([1]; all antisolvent (hexane) tests of tables 5 and 6): rods
Crystals Mean maximum length ([1]; test 22: 150 mg · mL^−1 in IPAc, σ 8.4, hexane antisolvent, tubular length 18 cm): 6 ± 2 μm
Crystals Mean maximum length ([1]; test 23: 150 mg · mL^−1 in IPAc, σ 8.4, hexane antisolvent, tubular length 33 cm): 9 ± 5 μm
Crystals Mean maximum length ([1]; test 24: 150 mg · mL^−1 in IPAc, σ 8.4, hexane antisolvent, tubular length 50 cm): 10 ± 5 μm
Crystals Mean maximum length ([1]; test 25: 150 mg · mL^−1 in IPAc, σ 8.4, hexane antisolvent, tubular length 50 cm): 9 ± 4 μm
Crystals Mean maximum length ([1]; test 26: 150 mg · mL^−1 in IPAc, σ 8.4, hexane antisolvent, tubular length 100 cm): Blocked tube
Crystals Mean maximum length ([1]; test 27: 200 mg · mL^−1 in IPAc, σ 11.5, hexane antisolvent, tubular length 18 cm): 12 ± 6 μm
Crystals Mean maximum length ([1]; test 28: 200 mg · mL^−1 in IPAc, σ 11.5, hexane antisolvent, tubular length 33 cm): 7 ± 3 μm
Crystals Mean maximum length ([1]; test 29: 200 mg · mL^−1 in IPAc, σ 11.5, hexane antisolvent, tubular length 50 cm): 9 ± 5 μm
Crystals Mean maximum length ([1]; test 30: 200 mg · mL^−1 in IPAc, σ 11.5, hexane antisolvent, tubular length 50 cm): 7 ± 3 μm
Crystals Mean maximum length ([1]; test 31: 200 mg · mL^−1 in IPAc, σ 11.5, hexane antisolvent, tubular length 100 cm): Blocked tube
Crystals Mean maximum length ([1]; test 32: 300 mg · mL^−1 in IPAc, σ 17.8, hexane antisolvent, tubular length 50 cm): 8 ± 3 μm
Crystals Mean maximum length ([1]; test 33: 300 mg · mL^−1 in IPAc, σ 17.8, hexane antisolvent, tubular length 100 cm): Blocked tube
Appearance of crystals ([2]; 150 mg/mL in IPAc, supersaturation 0.09): None
Appearance of crystals ([2]; 200 mg/mL in IPAc, supersaturation 0.47): None
Appearance of crystals ([2]; 250 mg/mL in IPAc, supersaturation 0.83): 20 h
Appearance of crystals ([2]; 300 mg/mL in IPAc, supersaturation 1.21): 2 h
Appearance of crystals ([2]; 350 mg/mL in IPAc, supersaturation 1.57): 0.5 h
Appearance of crystals ([2]; 400 mg/mL in IPAc, supersaturation 1.94): Immediate
Appearance of crystals ([2]; 500 mg/mL in IPAc, supersaturation 2.68): Immediate
Appearance of crystals ([2]; 600 mg/mL in IPAc, supersaturation 3.41): Immediate, white slurry
Appearance of crystals ([2]; 800 mg/mL in IPAc, supersaturation 4.88): Immediate, white slurry
Appearance crystals ([2]; test 1: 600 mg/mL in IPAc, Tc 0° C., σ 11, Q 54 mL/min, no restriction): Needles
Appearance crystals [2, 3]: Rods
Crystal length [2, 3]: 1020 ± 196 μm
J (nucleation rate) [2, 3]: 2 100 mL^−1 · s^−1
Appearance crystals [2, 4]: Rods
Crystal length [2, 4]: 365 ± 106 μm
J (nucleation rate) [2, 4]: 43 000 mL^−1 · s^−1
Appearance crystals [2, 5]: Rods
Crystal length [2, 5]: 258 ± 76 μm
J (nucleation rate) [2, 5]: 121 000 mL^−1 · s^−1
Appearance crystals ([2]; test 5: 600 mg/mL in IPAc, Tc 0° C., σ 11, Q 54 mL/min, restriction 5 cm long, 500 μm): Needles
Appearance crystals [2, 6]: Rods
Crystal length [2, 6]: 227 ± 64 μm
J (nucleation rate) [2, 6]: 181 000 mL^−1 · s^−1
Appearance crystals [2, 7]: Rods
Crystal length [2, 7]: 121 ± 33 μm
J (nucleation rate) [2, 7]: 1 200 000 mL^−1 · s^−1
Appearance crystals [2, 8]: Rods
Crystal length [2, 8]: 175 ± 100 μm
J (nucleation rate) [2, 8]: 400 000 mL^−1 · s^−1
Appearance crystals [2, 9]: Rods
Crystal length [2, 9]: 195 μm
J (nucleation rate) [2, 9]: 66 000 mL.^−1s^−1
Appearance crystals [2, 10]: Rods
Crystal length [2, 10]: 195 μm
J (nucleation rate) [2, 10]: 131 000 mL^−1 · s^−1
Appearance crystals [2, 11]: Rods
Crystal length [2, 11]: 62 μm
J (nucleation rate) [2, 11]: 3 085 000 mL.^−1s^−1
Appearance crystals [2, 12]: Rods
Crystal length [2, 12]: 62 μm
J (nucleation rate) [2, 12]: 1 609 000 mL.^−1s^−1
Appearance crystals [2, 13]: Rods
Crystal length [2, 13]: 46 μm
J (nucleation rate) [2, 13]: 8 500 000 mL.^−1s^−1
Appearance crystals [2, 14]: Rods
Crystal length [2, 14]: 43 μm
J (nucleation rate) [2, 14]: 7 300 000 mL.^−1s^−1
Appearance crystals [2, 15]: Rods
Crystal length [2, 15]: 37 μm
J (nucleation rate) [2, 15]: 12 000 000 mL.^−1s^−1
Appearance crystals [2, 16]: Rods
Crystal length [2, 16]: 40 μm
J (nucleation rate) [2, 16]: 11 500 000 mL.^−1s^−1
Appearance crystals [2, 17]: Rods
Crystal length [2, 17]: 35 μm
J (nucleation rate) [2, 17]: 9 700 000 mL.^−1s^−1
Appearance crystals [2, 18]: Rods
Crystal length [2, 18]: 143 μm
J (nucleation rate) [2, 18]: 310 000 mL^−1 · s^−1
Appearance crystals [2, 19]: Rods
Crystal length [2, 19]: 120 μm
J (nucleation rate) [2, 19]: 500 000 mL^−1 · s^−1
Appearance crystals [2, 20]: Rods
Crystal length [2, 20]: 95 μm
J (nucleation rate) [2, 20]: 642 000 mL^−1 · s^−1
Appearance crystals [2, 21]: Rods
Crystal length [2, 21]: 207 μm
J (nucleation rate) [2, 21]: 132 000 mL^−1 · s^−1
Appearance crystals [2, 22]: Rods
Crystal length [2, 22]: 211 μm
J (nucleation rate) [2, 22]: 107 000 mL^−1 · s^−1
